The values that follow come from patent US20230124862A1, “BISMUTH THIOL COMPOUNDS AND COMPOSITIONS AND METHODS OF TREATING MICROBIAL CO-INFECTIONS” (Microbion Corporation, priority 2020, published 2023).

Values after ≈ are worked out from the molar mass of the structure shown. Like-named read-outs stand apart in the source and are kept apart here. Where only a bound is given, the exact number is not on record here.

The test system of test [1] is S. aureus. Put plainly: Broth microdilution MIC (Example 11). Format: cell-based, Staphylococcus aureus. The settings on record: Staphylococcus aureus, ATCC 29213 / MSSA, S. aureus MMX 101 (ATCC 29213), QC, MSSA.
Test [2] has as its system Enterococcus spp. Put plainly: Broth microdilution MIC (Example 11). Format: cell-based, E. faecalis, E. faecium.
Test [3] has as its system S. pneumoniae. Conditions: S. pneumoniae MMX 6837 (ATCC 49619); cited from earlier work.
The test system of test [4] is S. aureus. Conditions: S. aureus MMX 101 (ATCC 29213); cited from earlier work.
The subject of test [5] is P. aeruginosa. Conditions: P. aeruginosa isolate 103; CLSI QC range in parenthesis; cited from earlier work.
The test system of test [6] is P. aeruginosa. Put plainly: Broth microdilution MIC (Example 10). Conditions: initial MIC testing. Format: cell-based, Pseudomonas aeruginosa. (In general: Broth dilution looks for growth in wells or tubes with falling amounts of substance.)
Test [7] has as its system Burkholderia cepacia complex. The test is described as follows: Checkerboard FIC/FICI assay. Format: cell-based, Burkholderia spp. Conditions: during FIC testing.
Test [8] has as its system P. aeruginosa. Conditions: P. aeruginosa isolate 103; CLSI QC range in parenthesis; cited from earlier work. This is another data set of the same source.
Test [9] has as its system P. aeruginosa. The test is described as follows: Checkerboard FIC/FICI assay. The settings on record: during FIC testing. Format: cell-based, Pseudomonas aeruginosa.
Test [10] has as its system Burkholderia cepacia complex. Format: cell-based, Burkholderia spp. The settings on record: initial MIC testing.
In test [11] the test system is beta-hemolytic streptococci. The test is described as follows: Broth microdilution MIC (Example 11). Format: cell-based, S. pyogenes, S. agalactiae.
Test [12] has as its system S. pneumoniae. Put plainly: Broth microdilution MIC (Example 11). Type of test: cell-based, Streptococcus pneumoniae.

Usually MIC stands for the lowest concentration that inhibits growth of the organism. For `CC[C@H]1OC(=O)[C@H](C)[C@@H](O[C@H]2C[C@@](C)(OC)[C@@H](O)[C@H](C)O2)[C@H](C)[C@@H](O[C@@H]2O[C@H](C)C[C@H](N(C)C)[C@H]2O)[C@](C)(O)C[C@@H](C)C(=O)[C@H](C)[C@@H](O)[C@]1(C)O` [Erythromycin], the MIC in test [1] (read-out: MIC) was 0.5 µg/mL (≈ 0.681 µM); in test [2] (E. faecalis MMX 8960, VRE, Lev^R Cip^R Ery^R, read-out: MIC), above 64 µg/mL; in [2] (E. faecalis MMX 8961, VRE, Lev^R Cip^R Ery^R, read-out: MIC) it was above 64 µg/mL; in [2] (E. faecalis MMX 8962, VRE, Lev^R Cip^R Ery^R, read-out: MIC), above 64 µg/mL; in [2] (E. faecium MMX 485, VRE vanA, Lev^R Cip^R Ery^R, read-out: MIC), above 64 µg/mL; in test [2] (E. faecium MMX 752, VRE vanA, Lev^R Cip^R Ery^R, read-out: MIC), above 64 µg/mL. Besides, the “CLSI QC range of MIC” value in test [3] is reported as “(0.03-0.12) μg/mL”; in test [4], “(0.25-1) μg/mL”.

For the molecule `NC[C@H]1O[C@H](O[C@H]2[C@H](O)[C@@H](O[C@H]3O[C@H](CO)[C@@H](O)[C@H](N)[C@H]3O)[C@H](N)C[C@@H]2N)[C@H](N)C[C@@H]1O` [TOB], the “CLSI QC range of MIC” value in [5] and in [8] was “(0.25-1) μg/mL” in each case. Besides, the MIC in test [6] (P. aeruginosa isolate 103, QC strain) was 1 µg/mL (≈ 2.14 µM); in test [6] (P. aeruginosa isolate 1497 (TOB-R AMK-R, CIP-I, AZT-R, COL-R)), 16 µg/mL (≈ 34.2 µM); in [6] (P. aeruginosa isolate 1530 (TOB-R, AMK-R, CIP-R)) it was 32 µg/mL (≈ 68.4 µM); in test [6] (P. aeruginosa isolate 1553 (TOB-R, AMK-R, CIP-R)) it was above 256 µg/mL; in [6] (P. aeruginosa isolate 6322 (MEM-R, TOB-R, AMK-R, CIP-R, AZT-R)) it was 128 µg/mL (≈ 274 µM); in test [6] (P. aeruginosa isolate 6977 (MEM-I, TOB-R, CIP-R, AZT-I)) it was 128 µg/mL (≈ 274 µM). Moreover, the MIC amounted to 0.5 µg/mL (≈ 1.07 µM) in test [6] (P. aeruginosa isolate 7745 (MEM-R, CIP-R, AZT-R)); 32 µg/mL (≈ 68.4 µM) in test [6] (P. aeruginosa isolate 7754 (MEM-R, TOB-R, CIP-R, AZT-I)); 1 µg/mL (≈ 2.14 µM) in [6] (P. aeruginosa isolate 7762 (MEM-I, CIP-I)); 0.5 µg/mL (≈ 1.07 µM) in test [6] (P. aeruginosa isolate 7871 (MEM-R, AZT-I)); 0.5 µg/mL (≈ 1.07 µM) in test [6] (P. aeruginosa isolate 7874); 1 µg/mL (≈ 2.14 µM) in [6] (P. aeruginosa isolate 7886 (MEM-R, CIP-R, AZT-R)). Also, the MIC was above 256 µg/mL in test [6] (P. aeruginosa isolate 8797 (MEM-R, TOB-R, AMK-R, CIP-R, AZT-R, COL-R)); 32 µg/mL (≈ 68.4 µM) in [6] (P. aeruginosa isolate 8798 (MEM-R, TOB-R, AMK-R, CIP-R, AZT-R, COL-R)); 0.5 µg/mL (≈ 1.07 µM) in test [6] (P. aeruginosa isolate 9108 (CIP-R, AZT-I)); 32 µg/mL in [7] (B. cenocepacia isolate 0548); 256 µg/mL in test [7] (B. cenocepacia isolate 0813); 32 µg/mL in test [7] (B. cepacia isolate 0546). Moreover, the MIC in [7] (B. cepacia isolate 1793) amounted to 16 µg/mL; in [9] (isolate 103 (ATCC 25922), each agent tested alone for QC, one replicate) it was 1 µg/mL; in test [9] (isolate 6322), 128 µg/mL; in [9] (isolate 6977) it was 128 µg/mL; in [9] (isolate 7745), 0.5 µg/mL; in test [9] (isolate 8798), 16 µg/mL. Besides, the MIC was 0.5 µg/mL in [9] (isolate 9108); 64 µg/mL (≈ 137 µM) in test [10] (B. cenocepacia isolate 0548 (CIP-R)); 256 µg/mL (≈ 548 µM) in [10] (B. cenocepacia isolate 0813 (CPI-I)); 64 µg/mL (≈ 137 µM) in test [10] (B. cepacia isolate 0546); 64 µg/mL (≈ 137 µM) in [10] (B. cepacia isolate 1793); 64 µg/mL (≈ 137 µM) in test [10] (B. cepacia isolate 1794). Further, the MIC in test [10] (B. cepacia isolate 9040) stood at 8 µg/mL (≈ 17.1 µM); in test [10] (B. multivorans isolate 1791), 64 µg/mL (≈ 137 µM); in test [10] (B. multivorans isolate 5665 (CIP-I)), 64 µg/mL (≈ 137 µM); in test [10] (B. multivorans isolate 8952 (CIP-I)), 16 µg/mL (≈ 34.2 µM).

For the molecule `CN[C@H](CC(C)C)C(=O)N[C@H]1C(=O)N[C@@H](CC(N)=O)C(=O)N[C@H]2C(=O)N[C@H]3C(=O)N[C@H](C(=O)N[C@H](C(=O)O)c4cc(O)cc(O)c4-c4cc3ccc4O)[C@H](O)c3ccc(c(Cl)c3)Oc3cc2cc(c3O[C@@H]2O[C@H](CO)[C@@H](O)[C@H](O)[C@H]2O[C@H]2C[C@](C)(N)[C@H](O)[C@H](C)O2)Oc2ccc(cc2Cl)[C@H]1O` [vancomycin, reference compound], the minimal inhibitory concentration (MIC) in test [1] was 1 µg/mL (≈ 0.69 µM); in test [2], above 64 µg/mL; in test [2] (E. faecalis MMX 8960, VRE, Lev^R Cip^R Ery^R) it was above 64 µg/mL; in test [2] (E. faecalis MMX 8962, VRE, Lev^R Cip^R Ery^R), above 64 µg/mL; in [2] (E. faecium MMX 485, VRE vanA, Lev^R Cip^R Ery^R), above 64 µg/mL; in test [2] (E. faecium MMX 752, VRE vanA, Lev^R Cip^R Ery^R), above 64 µg/mL. The MIC was determined as 0.5 µg/mL (≈ 0.345 µM) in test [11] (Streptococcus pyogenes, S. pyogenes MMX 3820, ERY^R CLI^R); 0.5 µg/mL (≈ 0.345 µM) in test [11] (Streptococcus pyogenes, S. pyogenes MMX 3919, ERY^R); 0.5 µg/mL (≈ 0.345 µM) in [11] (Streptococcus pyogenes, S. pyogenes MMX 3929, ERY^R CC^R); 0.5 µg/mL (≈ 0.345 µM) in [11] (Streptococcus pyogenes, S. pyogenes MMX 5091, ERY^R CC^R). Further, the “CLSI QC range of MIC” value in test [3] is “(0.12-0.5) μg/mL”; in test [4] it was “(0.5-2) μg/mL”.

Consider Penicillin, for which the “CLSI QC range of MIC” value in [3] is listed as “(0.25-1) μg/mL”. Further, the MIC is 0.03 µg/mL in [11] (S. agalactiae MMX 3741, ERY^R CC^R); 0.06 µg/mL in [11] (S. agalactiae MMX 3743, ERY^R CC^R); 0.06 µg/mL in [11] (S. agalactiae MMX 4077, ERY^R CC^R); 2 µg/mL in [11] (S. agalactiae MMX 4079, ERY^R CC^R Pen^R MEM^R); 0.06 µg/mL in test [11] (S. agalactiae MMX 4086, ERY^R CC^R); at most 0.008 µg/mL in test [11] (S. pyogenes MMX 3068, Ery^R). The MIC is at most 0.008 µg/mL in [11] (S. pyogenes MMX 3820, ERY^R CLI^R); at most 0.008 µg/mL in test [11] (S. pyogenes MMX 3919, ERY^R); at most 0.008 µg/mL in test [11] (S. pyogenes MMX 3929, ERY^R CC^R); at most 0.008 µg/mL in test [11] (S. pyogenes MMX 5091, ERY^R CC^R); 2 µg/mL in [12] (S. pneumoniae MMX 880, Lev^R SXT^R CC^R Ery^R Pen^R); 4 µg/mL in test [12] (S. pneumoniae MMX 937, Mem^R SXT^R CC^R Ery^R Per^R). Besides, the MIC in test [12] (S. pneumoniae MMX 3959, CC^R Ery^R) came to 0.12 µg/mL; in [12] (S. pneumoniae MMX 5440, Mem^R SXT^R CC^R Ery^R Pen^R), 4 µg/mL; in test [12] (S. pneumoniae MMX 5445, Mem^R SXT^R CC^R Ery^R Pen^R), 4 µg/mL; in test [12] (S. pneumoniae MMX 6837 (ATCC 49619), QC) it was 0.25 µg/mL; in [12] (S. pneumoniae MMX 8133, Mem^R SXT^R CC^R Ery^R Pen^R) it was 4 µg/mL.
